Test results published in patent US20240148821A1, “PHARMACEUTICAL USE OF CYCLIC PEPTIDE COMPOUND” (CHUGAI SEIYAKU KABUSHIKI KAISHA, priority 2021, published 2024).
Numbered stars: 1 amine (or outer) side, 2 acyl side, 3 side chain; on linkers, the order of the positions; unused ones are H or OH. Bridge positions count the residues as written; N and C are the ends. Square brackets hold non-standard residues; d marks the D form. Peptide text beside a SMILES is read from it. * marks the point of attachment. hPhe(3-Cl-4-CF3) = N[C@@H](CCc1ccc(C(F)(F)F)c(Cl)c1)C(=O)O; hPhe(3-F,4-CF3) = N[C@@H](CCc1ccc(C(F)(F)F)c(F)c1)C(=O)O; hPhe(4-CF3) = N[C@@H](CCc1ccc(C(F)(F)F)cc1)C(=O)O; NMePhe(4-Cl) = CN[C@@H](Cc1ccc(Cl)cc1)C(=O)O; NMedβ3hAla = C[C@H](CC(=O)[*:2])N(C)[*:1]; NMeGly(cPent) = CN[C@H](C(=O)O)C1CCCC1; NMeCha = CN[C@@H](CC1CCCCC1)C(=O)O; Hyp = O=C(O)[C@@H]1C[C@@H](O)CN1; NMeChg = CN[C@H](C(=O)O)C1CCCCC1; NMeF = CN[C@@H](Cc1ccccc1)C(=O)O; NMeD = CN[C@@H](CC(=O)O)C(=O)O; NMeL = CN[C@@H](CC(C)C)C(=O)O; NMeAc5c = CNC1(C(=O)O)CCCC1; NMeV = CN[C@H](C(=O)O)C(C)C; d(β3hA) = C[C@@H](N)CC(=O)O; NMeA = CN[C@@H](C)C(=O)O; NMeAib = CNC(C)(C)C(=O)O; Piperidide = C1CCN(*)CC1; dNMeA = CN[C@H](C)C(=O)O; Ac5c = NC1(C(=O)O)CCCC1; Aze = O=C(O)[C@@H]1CCN1; Sar = CNCC(=O)O

Each compound was assayed against protein-protein interaction between Kras and SOS1 (biotin-tagged human Kras loaded with GDP, His-tagged human SOS1) (Homo sapiens (Human), UniProt P01116, G12D) (assay: Protein-protein interaction inhibition between Kras and SOS1 (KrasG12D-SOS PPI) using AlphaScreen). Settings: AlphaScreen; biotin-tagged human Kras loaded with GDP, His-tagged human SOS1; read-out: KRAS G12D-SOS PPI IC50.
Type: biochemical

Q: With `CCO[C@@H]1C[C@H]2C(=O)NC3(CCCC3)C(=O)N(C)[C@@H](C3CCCC3)C(=O)N(C)[C@H](C)CC(=O)N(C)[C@@H](CC(C)C)C(=O)N[C@@H]([C@@H](C)CC)C(=O)N(C)CC(=O)N(C)CC(=O)N(C)[C@@H](CC3CCCCC3)C(=O)N(C)CC(=O)N[C@@H](CCc3ccc(C(F)(F)F)c(Cl)c3)C(=O)N2C1` [Compound 510] (cyclo([Ac5c][NMeGly(cPent)][NMedβ3hAla][NMeL]I[Sar][Sar][NMeCha][Sar][hPhe(3-Cl-4-CF3)][Hyp](Et))) as the compound, how does the IC50 read?
A: Its IC50 is 4 nM.

Q: `CC[C@H](C)[C@@H]1NC(=O)[C@H](CC(C)C)N(C)C(=O)C[C@@H](C(=O)N2CCCCC2)N(C)C(=O)[C@H](C(C)C)N(C)C(=O)C2(CCCC2)NC(=O)[C@@H]2CCCN2C(=O)[C@H](CCc2ccc(C(F)(F)F)c(F)c2)NC(=O)CN(C)C(=O)[C@H](CC2CCCCC2)N(C)C(=O)[C@@H]2CCN2C(=O)CN(C)C1=O` [Compound 599] ([NMeL]I[Sar][Aze][NMeCha][Sar][hPhe(3-F,4-CF3)]P[Ac5c][NMeV][NMeD]-Piperidide; lactam N-11) was tested. Which IC50 did it give?
A: Its IC50 is 12 nM.

Q: How did the IC50 turn out when `CC[C@H](C)[C@@H]1NC(=O)[C@H](CC(C)C)N(C)C(=O)C[C@@H](C)N(C)C(=O)[C@H](CC(C)C)NC(=O)C2(CCCC2)N(C)C(=O)[C@H](CC(C)C)NC(=O)[C@H](CCc2ccc(C(F)(F)F)c(F)c2)NC(=O)CN(C)C(=O)[C@H](CC2CCCCC2)N(C)C(=O)CN(C)C(=O)CN(C)C1=O` [Compound 2] (cyclo(I[Sar][Sar][NMeCha][Sar][hPhe(3-F,4-CF3)]L[NMeAc5c]L[NMedβ3hAla][NMeL])) was run?
A: Its IC50 is 15 nM.

Q: Which IC50 does the source give for `CC[C@H](C)[C@@H]1NC(=O)[C@H](CC(C)C)N(C)C(=O)C[C@@H](C)N(C)C(=O)[C@H](CC(C)C)NC(=O)C(C)(C)N(C)C(=O)[C@H](CC(C)C)NC(=O)[C@H](CCc2ccc(C(F)(F)F)c(Cl)c2)NC(=O)[C@@H](C)N(C)C(=O)[C@H](CC2CCCCC2)N(C)C(=O)CN(C)C(=O)CN(C)C1=O` [Compound 1389] (cyclo(I[Sar][Sar][NMeCha][dNMeA][hPhe(3-Cl-4-CF3)]L[NMeAib]L[NMedβ3hAla][NMeL])) here?
A: The IC50 was 240 nM.

Q: With `CC[C@H](C)[C@@H]1NC(=O)[C@H](C)N(C)C(=O)C[C@@H](C)NC(=O)[C@H](CC(C)C)N(C)C(=O)[C@H](Cc2ccccc2)N(C)C(=O)[C@@H]2C[C@@H](O)CN2C(=O)[C@H](CCc2ccc(C(F)(F)F)cc2)NC(=O)CN(C)C(=O)[C@H](Cc2ccc(Cl)cc2)N(C)C(=O)CN(C)C(=O)CN(C)C1=O` [Compound 1375] (cyclo([Hyp][NMeF][NMeL][d(β3hA)][NMeA]I[Sar][Sar][NMePhe(4-Cl)][Sar][hPhe(4-CF3)])) as the compound, how does the IC50 read?
A: Its IC50 is 9.3 nM.

Q: With `CC[C@H](C)[C@@H]1NC(=O)[C@H](CC(C)C)N(C)C(=O)C[C@@H](C(=O)N2CCCCC2)N(C)C(=O)[C@H](C2CCCCC2)N(C)C(=O)C2(CCCC2)NC(=O)[C@@H]2C[C@@H](O)CN2C(=O)[C@H](CCc2ccc(C(F)(F)F)c(Cl)c2)NC(=O)CN(C)C(=O)[C@H](CC2CCCCC2)N(C)C(=O)CN(C)C(=O)CN(C)C1=O` [Compound 1376, (3S,9S,18S,21S,25S,28S,34S,36R)-3-[2-[3-chloro-4-(trifluoromethyl)phenyl]ethyl]-28-cyclohexyl-9-(cyclohexylmethyl)-36-hydroxy-21-isobutyl-7,10,13,16,22,26,29-heptamethyl-18-[(1S)-1-methylpropyl]-25-(piperidine-1-carbonyl)spiro[1,4,7,10,13,16,19,22,26,29,32-undecazabicyclo[32.3.0]heptatriacontane-31,1′-cyclopentane]-2,5,8,11,14,17,20,23,27,30,33-undecone] ([NMeL]I[Sar][Sar][NMeCha][Sar][hPhe(3-Cl-4-CF3)][Hyp][Ac5c][NMeChg][NMeD]-Piperidide; lactam N-11) as the compound, how does the IC50 read?
A: Its IC50 is 0.71 nM.
